From PubChem BioAssay AID248 (DTP/NCI, 2004)
“And” between values parts separate entries of the source, which are not always exact repeats. Identical values can stand only once. Toxic doses and inconclusive results are not listed.

System: L1210 leukemia ip in BDF1 mice, survival T/C
Assay: NCI In Vivo Anticancer Drug Screen. Data for tumor model L1210 Leukemia (intraperitoneal) in B6D2F1 (BDF1) mice
Conditions: endpoint: mean survival time, higher = longer survival
Procedure, shortened: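 Read-out is survival time, reported as the treated-group measurement over the vehicle-control measurement.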

[1] = dose: 100.0 mg/kg/injection, schedule: Q04DX002 (ip), vehicle: Klucel (hydroxypropylcellulose) (HPC)
[2] = dose: 200.0 mg/kg/injection, schedule: Q04DX002 (ip), vehicle: Klucel (hydroxypropylcellulose) (HPC)
[3] = dose: 400.0 mg/kg/injection, schedule: Q04DX002 (ip), vehicle: Klucel (hydroxypropylcellulose) (HPC)
[4] = dose: 100.0 mg/kg/injection, schedule: Q01DX009 (ip), vehicle: saline with Tween-80
[5] = dose: 100.0 mg/kg/injection, schedule: Q04DX003 (ip), vehicle: Klucel (hydroxypropylcellulose) (HPC)
[6] = dose: 200.0 mg/kg/injection, schedule: Q04DX003 (ip), vehicle: Klucel (hydroxypropylcellulose) (HPC)
[7] = dose: 400.0 mg/kg/injection, schedule: Q04DX003 (ip), vehicle: Klucel (hydroxypropylcellulose) (HPC)
[8] = dose: 100.0 mg/kg/injection, schedule: Q04DX003 (ip), vehicle: saline
[9] = dose: 200.0 mg/kg/injection, schedule: Q04DX003 (ip), vehicle: saline
[10] = dose: 400.0 mg/kg/injection, schedule: Q04DX003 (ip), vehicle: saline

O=C(O)c1cc[c]([Hg][S]c2ncnc3nc[nH]c23)cc1
T/C (dose: 6.0 mg/kg/injection, schedule: Q01DX Z (ip), vehicle: carboxymethylcellulose (CMC)): 105 % of control | T/C (dose: 6.25 mg/kg/injection, schedule: Q01DX015 (ip), vehicle: saline): 110 % of control | T/C (dose: 12.0 mg/kg/injection, schedule: Q01DX Z (ip), vehicle: carboxymethylcellulose (CMC)): 116 % of control | T/C (dose: 16.5 mg/kg/injection, schedule: Q01DX009 (ip), vehicle: saline): 118 % of control | T/C (dose: 25.0 mg/kg/injection, schedule: Q01DX015 (ip), vehicle: saline): 164 % of control | T/C (dose: 50.0 mg/kg/injection, schedule: Q01DX Z (ip), vehicle: carboxymethylcellulose (CMC)): 103 % of control | T/C (dose: 100.0 mg/kg/injection, schedule: Q01DX Z (ip), vehicle: carboxymethylcellulose (CMC)): 114 % of control

CCc1cccc(CC)c1NC(=O)c1ccccc1Cl
T/C [1]: 102 % of control | T/C [2]: 97 % of control | T/C [3]: 94 % of control

CC1=C(/C=C/C(C)=C/C=C/C(C)=C/C=O)C(C)(C)CCC1
T/C (dose: 50.0 mg/kg/injection, schedule: Q01DX009 (ip), vehicle: steriod suspending solution): 89 % of control and 95 % of control | T/C (dose: 100.0 mg/kg/injection, schedule: Q01DX009 (ip), vehicle: steriod suspending solution): 92 % of control | T/C (dose: 200.0 mg/kg/injection, schedule: Q01DX001 (sc), vehicle: steriod suspending solution): 96 % of control and 95 % of control | T/C (dose: 400.0 mg/kg/injection, schedule: Q01DX001 (sc), vehicle: steriod suspending solution): 96 % of control

C=C(CCC(C(=O)O)C1CCC2(C)C3=C(CCC12C)C1(C)CCC(O)C(C)(C)C1CC3)C(C)C (stereo not drawn)
T/C [4]: 91 % of control | T/C (dose: 200.0 mg/kg/injection, schedule: Q01DX009 (ip), vehicle: saline with Tween-80): 87 % of control | T/C (dose: 400.0 mg/kg/injection, schedule: Q01DX009 (ip), vehicle: saline with Tween-80): 94 % of control

CCOC(=O)C(=O)C1C(=O)C(=O)C(c2ccccc2)C1=O (stereo not drawn)
T/C (dose: 75.0 mg/kg/injection, schedule: Q01DX001 (ip), vehicle: carboxymethylcellulose (CMC)): 104 % of control | T/C (dose: 150.0 mg/kg/injection, schedule: Q01DX001 (ip), vehicle: carboxymethylcellulose (CMC)): 100 % of control | T/C (dose: 300.0 mg/kg/injection, schedule: Q01DX001 (ip), vehicle: carboxymethylcellulose (CMC)): 105 % of control

Cc1ccc(NC(=O)OC/C=C/c2ccccc2)c([N+](=O)[O-])c1
T/C [5]: 90 % of control | T/C [6]: 93 % of control | T/C [7]: 93 % of control

COc1cc(OC)c(Br)c(OC)c1
T/C (dose: 100.0 mg/kg/injection, schedule: Q01DX009 (ip), vehicle: other): 108 % of control | T/C [8]: 94 % of control | T/C (dose: 200.0 mg/kg/injection, schedule: Q01DX009 (ip), vehicle: other): 93 % of control | T/C [9]: 96 % of control | T/C (dose: 400.0 mg/kg/injection, schedule: Q01DX009 (ip), vehicle: other): 101 % of control | T/C [10]: 97 % of control

CS(N)(=O)=O
T/C (dose: 12.5 mg/kg/injection, schedule: Q04DX002 (ip), vehicle: saline): 111 % of control | T/C (dose: 25.0 mg/kg/injection, schedule: Q04DX002 (ip), vehicle: saline): 96 % of control | T/C (dose: 50.0 mg/kg/injection, schedule: Q04DX002 (ip), vehicle: saline): 96 % of control

Cc1c(C)c2cc3ccc(Cl)cc3nc2c2ccccc12
T/C [5]: 103 % of control | T/C [6]: 105 % of control | T/C [7]: 110 % of control

COc1ccc(/C=C2\N=C(c3ccccc3)OC2=O)cc1
T/C (dose: 100.0 mg/kg/injection, schedule: Q01DX001 (ip), vehicle: saline): 94 % of control | T/C [8]: 98 % of control | T/C (dose: 200.0 mg/kg/injection, schedule: Q01DX001 (ip), vehicle: saline): 95 % of control | T/C [9]: 93 % of control | T/C (dose: 400.0 mg/kg/injection, schedule: Q01DX001 (ip), vehicle: saline): 94 % of control | T/C [10]: 93 % of control

CN(C)C=NC(c1ccccc1)c1ccc(Cl)cc1 (stereo not drawn)
T/C (dose: 75.0 mg/kg/injection, schedule: Q01DX009 (ip), vehicle: saline with Tween-80): 95 % of control | T/C (dose: 150.0 mg/kg/injection, schedule: Q01DX009 (ip), vehicle: saline with Tween-80): 95 % of control | T/C (dose: 300.0 mg/kg/injection, schedule: Q01DX009 (ip), vehicle: saline with Tween-80): 100 % of control

CSc1ccnc2c1cnn2C1OC(CO)C(O)C1O (stereo not drawn)
T/C (dose: 50.0 mg/kg/injection, schedule: Q01DX005 (ip), vehicle: other): 109 % of control | T/C (dose: 100.0 mg/kg/injection, schedule: Q01DX005 (ip), vehicle: other): 102 % of control | T/C (dose: 200.0 mg/kg/injection, schedule: Q01DX005 (ip), vehicle: other): 98 % of control

CCCCOC(=O)Nc1ccccc1OCC
T/C [1]: 109 % of control | T/C [2]: 106 % of control | T/C [3]: 98 % of control

CC12CCC(O)CC1CCC1C2CCC2(C)C(c3ccc(=O)oc3)C(O)C3OC132 (stereo not drawn)
T/C (dose: 1.87 mg/kg/injection, schedule: Q01DX009 (ip), vehicle: Klucel (hydroxypropylcellulose) (HPC)): 105 % of control | T/C (dose: 3.5 mg/kg/injection, schedule: Q01DX009 (ip), vehicle: Klucel (hydroxypropylcellulose) (HPC)): 96 % of control | T/C (dose: 7.0 mg/kg/injection, schedule: Q01DX009 (ip), vehicle: Klucel (hydroxypropylcellulose) (HPC)): 91 % of control

Cc1ccc(S(=O)(=O)Oc2ccccc2NC(=O)c2ccccc2)cc1
T/C (dose: 50.0 mg/kg/injection, schedule: Q01DX009 (ip), vehicle: saline with Tween-80): 96 % of control | T/C [4]: 96 % of control

CC(N)(Cc1ccc(O)c(O)c1)C(=O)O (stereo not drawn)
T/C (dose: 25.0 mg/kg/injection, schedule: Q01DX009 (ip), vehicle: saline): 109 % of control | T/C (dose: 25.0 mg/kg/injection, schedule: Q04DX003 (ip), vehicle: saline): 103 % of control | T/C (dose: 50.0 mg/kg/injection, schedule: Q01DX009 (ip), vehicle: saline): 101 % of control | T/C (dose: 50.0 mg/kg/injection, schedule: Q04DX003 (ip), vehicle: saline): 95 % of control | T/C (dose: 100.0 mg/kg/injection, schedule: Q01DX009 (ip), vehicle: saline): 105 % of control | T/C [8]: 103 % of control | T/C (dose: 200.0 mg/kg/injection, schedule: Q01DX009 (ip), vehicle: saline): 111 % of control | T/C [9]: 106 % of control | T/C (dose: 400.0 mg/kg/injection, schedule: Q01DX009 (ip), vehicle: saline): 117 % of control | T/C [10]: 103 % of control

O=C(Nc1ccc(O)cc1)OCc1ccccc1
T/C (dose: 45.0 mg/kg/injection, schedule: Q04DX003 (ip), vehicle: Klucel (hydroxypropylcellulose) (HPC)): 105 % of control | T/C (dose: 50.0 mg/kg/injection, schedule: Q01DX009 (ip), vehicle: Klucel (hydroxypropylcellulose) (HPC)): 102 % of control | T/C (dose: 50.0 mg/kg/injection, schedule: Q04DX003 (ip), vehicle: Klucel (hydroxypropylcellulose) (HPC)): 91 % of control | T/C (dose: 65.0 mg/kg/injection, schedule: Q04DX003 (ip), vehicle: Klucel (hydroxypropylcellulose) (HPC)): 101 % of control | T/C (dose: 100.0 mg/kg/injection, schedule: Q01DX001 (ip), vehicle: Klucel (hydroxypropylcellulose) (HPC)): 109 % of control | T/C (dose: 100.0 mg/kg/injection, schedule: Q01DX009 (ip), vehicle: Klucel (hydroxypropylcellulose) (HPC)): 104 % of control | T/C [5]: 95 % of control | T/C (dose: 200.0 mg/kg/injection, schedule: Q01DX001 (ip), vehicle: Klucel (hydroxypropylcellulose) (HPC)): 106 % of control | T/C (dose: 200.0 mg/kg/injection, schedule: Q01DX009 (ip), vehicle: Klucel (hydroxypropylcellulose) (HPC)): 96 % of control | T/C [6]: 105 % of control and 106 % of control | T/C (dose: 400.0 mg/kg/injection, schedule: Q01DX001 (ip), vehicle: Klucel (hydroxypropylcellulose) (HPC)): 97 % of control | T/C (dose: 400.0 mg/kg/injection, schedule: Q01DX009 (ip), vehicle: Klucel (hydroxypropylcellulose) (HPC)): 94 % of control | T/C [7]: 98 % of control
